Source: ChEMBL document CHEMBL1130409, “Hydrazide-containing inhibitors of HIV-1 integrase” (J Med Chem, 1997)

Experiments:
[1] = target: T1, Human immunodeficiency virus type 1 integrase (Human immunodeficiency virus 1, UniProt Q7ZJM1); assay: Inhibition of HIV-1 integrase enzyme
[2] = target: T1, Human immunodeficiency virus type 1 integrase; assay: Inhibition of HIV-1 integrase enzyme by 3'-processing method
[3] = target: T1, Human immunodeficiency virus type 1 integrase; assay: Inhibition of HIV-1 integrase enzyme by 3'-processing method (experiment 1)
[4] = target: T1, Human immunodeficiency virus type 1 integrase; assay: Inhibition of HIV-1 integrase enzyme by integration method (experiment 1)
[5] = target: T1, Human immunodeficiency virus type 1 integrase; assay: Inhibition of HIV-1 integrase enzyme by integration method (experiment 2)
[6] = target: T1, Human immunodeficiency virus type 1 integrase; assay: Inhibition of HIV-1 integrase enzyme by 3'-processing method (experiment 2)
[7] = target: T1, Human immunodeficiency virus type 1 integrase; assay: Inhibition of HIV-1 integrase enzyme by integration method

T1 sequence (Q7ZJM1 whole entry): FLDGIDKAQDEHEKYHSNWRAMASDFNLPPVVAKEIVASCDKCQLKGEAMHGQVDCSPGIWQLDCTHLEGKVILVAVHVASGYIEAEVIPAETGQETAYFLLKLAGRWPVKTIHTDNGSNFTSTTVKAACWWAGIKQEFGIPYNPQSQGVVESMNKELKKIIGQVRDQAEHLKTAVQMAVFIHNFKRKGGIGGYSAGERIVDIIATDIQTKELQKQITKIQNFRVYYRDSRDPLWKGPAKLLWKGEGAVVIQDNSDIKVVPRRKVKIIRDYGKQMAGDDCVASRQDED

| IC50 [1] [µM] | IC50 [2] [µM] | Structure (SMILES) | also measured |
| --- | --- | --- | --- |
| > 100 | > 100 | Nc1ccccc1C(=O)NNC(=O)c1ccccc1N | – |
| > 100 | > 100 | O=C(NNC(=O)c1ccccc1)c1ccccc1 | – |
| > 100 | > 100 | NNC(=O)c1ccccc1N | – |
| – | – | NNC(=O)c1ccccc1O | IC50 [3]: 46 µM; IC50 [4]: 33 µM; IC50 [5]: 43 µM; IC50 [6]: 114 µM |
| > 100 | > 100 | O=C(NNC(=O)c1ccccn1)c1ccccn1 | – |
| > 100 | > 100 | Nc1ccccc1C(=O)NNC(=O)c1ccccc1O | – |
| – | – | NNC(=O)c1ccccc1S | IC50 [3]: 70 µM; IC50 [4]: 57.5 µM; IC50 [5]: 50 µM; IC50 [6]: 79.6 µM |
| > 200 | > 200 | NN(CC(O)COc1ccccc1)C(=O)c1ccccc1O (stereo not given) | – |
| – | > 200 | O=C(NNCC(O)COc1ccccc1)c1ccccc1O (stereo not given) | IC50 [7]: > 200 µM |
| > 100 | > 100 | O=C(NNC(=O)c1ccccc1O)c1ccccc1 | – |
| > 100 | > 100 | O=C(N/N=C/c1ccccc1O)c1ccccc1O | – |
| 1.1 | 2.3 | O=C(NNC(=O)c1cc2ccccc2cc1O)c1ccccc1O | – |
| > 100 | > 100 | CC(=O)NNC(=O)c1ccccc1O | – |
| 5.8 | 9.1 | O=C(NNC(=O)c1ccccc1S)c1ccccc1O | – |
| > 200 | > 200 | O=C(NCCCNC(=O)c1ccccc1O)c1ccccc1O | – |
| 5.2 | 6.7 | O=C(NNCc1ccccc1O)c1ccccc1O | – |
| > 100 | > 100 | NC(=O)c1ccccc1O [SALICYLAMIDE] | – |

| Structure (SMILES) | IC50 [1] [µM] | IC50 [2] [µM] | also measured |
| --- | --- | --- | --- |
| O=C(NNC(=O)c1ccccc1O)c1ccccc1O | 0.73 | 2.07 | – |
